# Experimental data taken from patent US6737383B1, “Herbicidal oxadiazolidines” (priority 1999, dated 2004).
# Legend:
# [1] = tested on: velvetleaf; experiment: Test B pre/postemergence velvetleaf; assay type: in vivo, Abutilon theophrasti
# How it was run: (§1)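 Test chemicals in a non-phytotoxic solvent mixture with surfactant were sprayed preemergence onto planted seeds and postemergence onto plants 2 to 18 cm tall (1- to 4-leaf stage). After twelve to sixteen days in a greenhouse, injury was visually rated against untreated controls from 0 (no effect) to 10 (complete control).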
# [2] = tested on: blackgrass; experiment: Test B pre/postemergence blackgrass; assay type: in vivo, Alopecurus myosuroides
# How it was run: as §1
# [3] = tested on: pigweed; experiment: Test B pre/postemergence pigweed; assay type: in vivo, Amaranthus retroflexus
# How it was run: as §1
# [4] = tested on: smallflower flatsedge; experiment: Test B flood test smallflower flatsedge; assay type: in vivo, Cyperus difformis
# How it was run: (§2)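 Read-out is a visual response score from 0 (no effect) to 10 (complete control), assigned by comparison with untreated controls. Treatment was applied at the 2-leaf stage, and plants stayed in the greenhouse for twelve to sixteen days before scoring.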
# [5] = tested on: corn; experiment: Test B pre/postemergence corn; assay type: in vivo, Zea mays
# How it was run: as §1
# [6] = tested on: giant foxtail; experiment: Test B pre/postemergence giant foxtail; assay type: in vivo, Setaria faberii
# How it was run: as §1
# [7] = tested on: surinam grass; experiment: Test B pre/postemergence surinam grass; assay type: in vivo, Brachiaria decumbens
# How it was run: as §1
# [8] = tested on: cocklebur; experiment: Test B pre/postemergence cocklebur; assay type: in vivo, Xanthium strumarium
# How it was run: as §1
# [9] = tested on: rice; experiment: Test B flood test rice; assay type: in vivo, Oryza sativa
# How it was run: as §2
# [10] = tested on: bedstraw; experiment: Test B pre/postemergence bedstraw; assay type: in vivo, Galium aparine
# How it was run: as §1
# [11] = tested on: soybean; experiment: Test B pre/postemergence soybean; assay type: in vivo, Glycine max
# How it was run: as §1
# [12] = tested on: morningglory; experiment: Test B pre/postemergence morningglory; assay type: in vivo, Ipomoea hederacea
# How it was run: as §1
# [13] = tested on: wild oat; experiment: Test B pre/postemergence wild oat; assay type: in vivo, Avena fatua
# How it was run: as §1
# [14] = tested on: bamyardgrass; experiment: Test B flood test barnyardgrass; assay type: in vivo, Echinochloa crus-galli
# How it was run: as §2
# [15] = tested on: crabgrass; experiment: Test B pre/postemergence crabgrass; assay type: in vivo, Digitaria sanguinalis
# How it was run: as §1
# [16] = tested on: wheat; experiment: Test B pre/postemergence wheat; assay type: in vivo, Triticum aestivum
# How it was run: as §1
# [17] = Preemergence, Rate 62 g/ha, scale of 0 to 10 where 0 is no effect and 10 is complete control
# [18] = Preemergence, Rate 250 g/ha, scale of 0 to 10 where 0 is no effect and 10 is complete control
# [19] = Preemergence, Rate 500 g/ha, scale of 0 to 10 where 0 is no effect and 10 is complete control
# [20] = Rate 62 g/ha, Postemergence, scale of 0 to 10 where 0 is no effect and 10 is complete control
# [21] = Rate 125 g/ha, Postemergence, scale 0 to 10
# [22] = Rate 125 g/ha, Preemergence, scale of 0 to 10 where 0 is no effect and 10 is complete control
# [23] = Rate 500 g/ha, Postemergence, scale 0 to 10, 0 no effect, 10 complete control
# [24] = Rate 62 g/ha, headed Pre-emergence (flood test species), scale 0 to 10 (0 no effect, 10 complete control)
# [25] = Rate 125 g/ha, Pre-emergence, flood test species, scale 0 to 10 where 0 is no effect and 10 is complete control
# [26] = Rate 250 g/ha, Pre-emergence, flood-test species, scale 0 to 10, 0 is no effect, 10 is complete control
# [27] = Rate 500 g/ha, Pre-emergence, flood test species, scale 0 to 10 (0 no effect, 10 complete control)
compound,measurement,setting,value
Cc1nc(C)c(Cn2c(=O)on(C(=O)N(c3ccc(F)cc3)C(C)C)c2=O)s1 [Compound 232],Velvetleaf plant response rating,[1]; [17],0
same,Velvetleaf plant response rating,[1]; [18],0
same,"Plant response rating, Velvetleaf",[1]; [19],0
same,Velvetleaf plant response rating,[1]; [20],2
same,Velvetleaf plant response rating,[1]; [21],2
same,Velvetleaf plant response rating,[1]; [22],0
same,"Plant response rating (0 to 10; 0 is no effect, 10 is complete control), Velvetleaf","[1]; Rate 250 g/ha, Postemergence",2
same,Velvetleaf plant response rating,[1]; [23],3
same,Blackgrass plant response rating,[2]; [17],2
same,Blackgrass plant response rating,[2]; [18],8
same,"Plant response rating, Blackgrass",[2]; [19],8
same,Blackgrass plant response rating,[2]; [20],0
same,Blackgrass plant response rating,[2]; [21],2
same,Blackgrass plant response rating,[2]; [22],6
same,"Plant response rating (0 to 10; 0 is no effect, 10 is complete control), Blackgrass","[2]; Rate 250 g/ha, Postemergence",6
same,Blackgrass plant response rating,[2]; [23],7
same,Redroot pigweed plant response rating,[3]; [17],0
same,Redroot pigweed plant response rating,[3]; [18],5
same,"Plant response rating, Redroot pigweed",[3]; [19],7
same,Redroot pigweed plant response rating,[3]; [20],2
same,Redroot pigweed plant response rating,[3]; [21],3
same,Redroot pigweed plant response rating,[3]; [22],0
same,"Plant response rating (0 to 10; 0 is no effect, 10 is complete control), Redroot pigweed","[3]; Rate 250 g/ha, Postemergence",6
same,Redroot pigweed plant response rating,[3]; [23],4
same,S. Flatsedge plant response rating,[4]; [24],0
same,S. Flatsedge plant response rating,[4]; [25],0
same,S. Flatsedge plant response rating,[4]; [26],0
same,S. Flatsedge plant response rating,[4]; [27],0
same,Corn plant response rating,[5]; [17],0
same,Corn plant response rating,[5]; [18],0
same,"Plant response rating, Corn",[5]; [19],0
same,Corn plant response rating,[5]; [20],0
same,Corn plant response rating,[5]; [21],0
same,Corn plant response rating,[5]; [22],0
same,"Plant response rating (0 to 10; 0 is no effect, 10 is complete control), Corn","[5]; Rate 250 g/ha, Postemergence",0
same,Corn plant response rating,[5]; [23],0
same,Giant foxtail plant response rating,[6]; [17],6
same,Giant foxtail plant response rating,[6]; [18],8
same,"Plant response rating, Giant foxtail",[6]; [19],9
same,Giant foxtail plant response rating,[6]; [20],0
same,Giant foxtail plant response rating,[6]; [21],0
same,Giant foxtail plant response rating,[6]; [22],8
same,"Plant response rating (0 to 10; 0 is no effect, 10 is complete control), Giant foxtail","[6]; Rate 250 g/ha, Postemergence",2
same,Giant foxtail plant response rating,[6]; [23],3
same,B. signalgrass plant response rating,[7]; [17],0
same,B. signalgrass plant response rating,"[7]; Preemergence, Rate 250 g/ha, scale 0 to 10, 0 is no effect, 10 is complete control",1
same,"Plant response rating, B. signalgrass",[7]; [19],5
same,B. signalgrass plant response rating,[7]; [20],0
same,B. signalgrass plant response rating,"[7]; Rate 125 g/ha, Postemergence, scale 0 (no effect) to 10 (complete control)",0
same,B. signalgrass plant response rating,[7]; [22],0
same,"Plant response rating (0 to 10; 0 is no effect, 10 is complete control), B. signalgrass","[7]; Rate 250 g/ha, Postemergence",1
same,B. signalgrass plant response rating,[7]; [23],8
same,Cocklebur plant response rating,[8]; [17],0
same,Cocklebur plant response rating,[8]; [18],0
same,"Plant response rating, Cocklebur",[8]; [19],0
same,Cocklebur plant response rating,[8]; [20],0
same,Cocklebur plant response rating,[8]; [21],2
same,Cocklebur plant response rating,[8]; [22],0
same,"Plant response rating (0 to 10; 0 is no effect, 10 is complete control), Cocklebur","[8]; Rate 250 g/ha, Postemergence",2
same,Cocklebur plant response rating,[8]; [23],4
same,Rice plant response rating,[9]; [24],0
same,Rice plant response rating,[9]; [25],0
same,Rice plant response rating,[9]; [26],0
same,Rice plant response rating,[9]; [27],0
same,Bedstraw plant response rating,[10]; [17],0
same,Bedstraw plant response rating,[10]; [18],0
same,"Plant response rating, Bedstraw",[10]; [19],0
same,Bedstraw plant response rating,[10]; [20],0
same,Bedstraw plant response rating,[10]; [21],0
same,Bedstraw plant response rating,[10]; [22],0
same,"Plant response rating (0 to 10; 0 is no effect, 10 is complete control), Bedstraw","[10]; Rate 250 g/ha, Postemergence",2
same,Bedstraw plant response rating,[10]; [23],2
same,Soybean plant response rating,[11]; [17],0
same,Soybean plant response rating,[11]; [18],0
same,"Plant response rating, Soybean",[11]; [19],0
same,Soybean plant response rating,[11]; [20],3
same,Soybean plant response rating,[11]; [21],3
same,Soybean plant response rating,[11]; [22],0
same,"Plant response rating (0 to 10; 0 is no effect, 10 is complete control), Soybean","[11]; Rate 250 g/ha, Postemergence",4
same,Soybean plant response rating,[11]; [23],4
same,Morningglory plant response rating,[12]; [17],0
same,Morningglory plant response rating,[12]; [18],0
same,"Plant response rating, Morningglory",[12]; [19],0
same,Morningglory plant response rating,[12]; [20],3
same,Morningglory plant response rating,[12]; [21],8
same,Morningglory plant response rating,[12]; [22],0
same,"Plant response rating (0 to 10; 0 is no effect, 10 is complete control), Morningglory","[12]; Rate 250 g/ha, Postemergence",8
same,Morningglory plant response rating,[12]; [23],8
same,Wild oats plant response rating,[13]; [17],0
same,Wild oats plant response rating,[13]; [18],3
same,"Plant response rating, Wild oats",[13]; [19],8
same,Wild oats plant response rating,[13]; [20],0
same,Wild oats plant response rating,[13]; [21],0
same,Wild oats plant response rating,[13]; [22],0
same,"Plant response rating (0 to 10; 0 is no effect, 10 is complete control), Wild oats","[13]; Rate 250 g/ha, Postemergence",0
same,Wild oats plant response rating,[13]; [23],0
same,Barnyardgrass plant response rating,[14]; [24],0
same,Barnyardgrass plant response rating,[14]; [25],0
same,Barnyardgrass plant response rating,[14]; [26],0
same,Barnyardgrass plant response rating,[14]; [27],0
same,Crabgrass plant response rating,[15]; [17],5
same,Crabgrass plant response rating,[15]; [18],9
same,"Plant response rating, Crabgrass",[15]; [19],10
same,Crabgrass plant response rating,[15]; [20],0
same,Crabgrass plant response rating,[15]; [21],1
same,Crabgrass plant response rating,[15]; [22],7
same,"Plant response rating (0 to 10; 0 is no effect, 10 is complete control), Crabgrass","[15]; Rate 250 g/ha, Postemergence",1
same,Crabgrass plant response rating,[15]; [23],2
same,Wheat plant response rating,[16]; [17],0
same,Wheat plant response rating,[16]; [18],0
same,"Plant response rating, Wheat",[16]; [19],0
same,Wheat plant response rating,[16]; [20],0
same,Wheat plant response rating,[16]; [21],0
same,Wheat plant response rating,[16]; [22],0
same,"Plant response rating (0 to 10; 0 is no effect, 10 is complete control), Wheat","[16]; Rate 250 g/ha, Postemergence",0
same,Wheat plant response rating,[16]; [23],0
